Biological target: LRRK2 (Mus musculus, UniProt Q5S006)
Assay: LRRK2 degradation in bone marrow-derived macrophages
Assay type: cell-based
Description: Bone marrow isolation and macrophage differentiation was modified from (Wells et al., 2004), employing L929 preconditioned medium as the source of M-CSF for differentiation. Briefly, scissors and forceps were used to dissect femurs and tibiae from adult mice, and muscle tissue was carefully removed from bones. Clean femurs and tibiae were placed in a tissue culture dish containing complete media. The ends of each bone were cut with scissors to expose bone marrow. Bone marrow was flushed with a 25-gauge needle attached to a 10 ml syringe containing complete media. Media containing bone marrow was passed through a 70 μm cell strainer and precursor cells were plated on non-tissue culture treated 10 cm bacteriological plates containing 10 ml complete media. This was marked as day 0 of isolation. On day three post-isolation, macrophages were topped up with 5 ml fresh complete media. On day seven post-isolation, macrophages were rinsed once with PBS and incubated with Versene for 5 minutes in a 37° C. 5% CO2 tissue culture incubator. Macrophages were detached with cell scrapers and were centrifuged at 1200 rpm for 5 minutes at room temperature. The Versene was aspirated and the remaining cell pellet was resuspended in complete media. The cell suspension was counted, and cells were seeded for experimental analysis in a 6-well format, in tissue culture treated dishes at a final cell density of one million cells per 6-well.
Culturing and passaging of adherent cell lines were carried out using aseptic technique in CL1 or CL2 (for PBMC isolation) biological safety cabinets. All cells were incubated in a 37° C. incubator with 5% CO2. Cell lines were regularly tested for mycoplasma contamination. For western blot assay, the cells were seeded in 6-well plates. […] The cell pellet was discarded, and supernatant was collected for analysis by quantitative immunoblotting. […] Protein concentrations of cell lysates were determined using the Bradford assay. […]

Sequence of LRRK2 (Q5S006 whole entry): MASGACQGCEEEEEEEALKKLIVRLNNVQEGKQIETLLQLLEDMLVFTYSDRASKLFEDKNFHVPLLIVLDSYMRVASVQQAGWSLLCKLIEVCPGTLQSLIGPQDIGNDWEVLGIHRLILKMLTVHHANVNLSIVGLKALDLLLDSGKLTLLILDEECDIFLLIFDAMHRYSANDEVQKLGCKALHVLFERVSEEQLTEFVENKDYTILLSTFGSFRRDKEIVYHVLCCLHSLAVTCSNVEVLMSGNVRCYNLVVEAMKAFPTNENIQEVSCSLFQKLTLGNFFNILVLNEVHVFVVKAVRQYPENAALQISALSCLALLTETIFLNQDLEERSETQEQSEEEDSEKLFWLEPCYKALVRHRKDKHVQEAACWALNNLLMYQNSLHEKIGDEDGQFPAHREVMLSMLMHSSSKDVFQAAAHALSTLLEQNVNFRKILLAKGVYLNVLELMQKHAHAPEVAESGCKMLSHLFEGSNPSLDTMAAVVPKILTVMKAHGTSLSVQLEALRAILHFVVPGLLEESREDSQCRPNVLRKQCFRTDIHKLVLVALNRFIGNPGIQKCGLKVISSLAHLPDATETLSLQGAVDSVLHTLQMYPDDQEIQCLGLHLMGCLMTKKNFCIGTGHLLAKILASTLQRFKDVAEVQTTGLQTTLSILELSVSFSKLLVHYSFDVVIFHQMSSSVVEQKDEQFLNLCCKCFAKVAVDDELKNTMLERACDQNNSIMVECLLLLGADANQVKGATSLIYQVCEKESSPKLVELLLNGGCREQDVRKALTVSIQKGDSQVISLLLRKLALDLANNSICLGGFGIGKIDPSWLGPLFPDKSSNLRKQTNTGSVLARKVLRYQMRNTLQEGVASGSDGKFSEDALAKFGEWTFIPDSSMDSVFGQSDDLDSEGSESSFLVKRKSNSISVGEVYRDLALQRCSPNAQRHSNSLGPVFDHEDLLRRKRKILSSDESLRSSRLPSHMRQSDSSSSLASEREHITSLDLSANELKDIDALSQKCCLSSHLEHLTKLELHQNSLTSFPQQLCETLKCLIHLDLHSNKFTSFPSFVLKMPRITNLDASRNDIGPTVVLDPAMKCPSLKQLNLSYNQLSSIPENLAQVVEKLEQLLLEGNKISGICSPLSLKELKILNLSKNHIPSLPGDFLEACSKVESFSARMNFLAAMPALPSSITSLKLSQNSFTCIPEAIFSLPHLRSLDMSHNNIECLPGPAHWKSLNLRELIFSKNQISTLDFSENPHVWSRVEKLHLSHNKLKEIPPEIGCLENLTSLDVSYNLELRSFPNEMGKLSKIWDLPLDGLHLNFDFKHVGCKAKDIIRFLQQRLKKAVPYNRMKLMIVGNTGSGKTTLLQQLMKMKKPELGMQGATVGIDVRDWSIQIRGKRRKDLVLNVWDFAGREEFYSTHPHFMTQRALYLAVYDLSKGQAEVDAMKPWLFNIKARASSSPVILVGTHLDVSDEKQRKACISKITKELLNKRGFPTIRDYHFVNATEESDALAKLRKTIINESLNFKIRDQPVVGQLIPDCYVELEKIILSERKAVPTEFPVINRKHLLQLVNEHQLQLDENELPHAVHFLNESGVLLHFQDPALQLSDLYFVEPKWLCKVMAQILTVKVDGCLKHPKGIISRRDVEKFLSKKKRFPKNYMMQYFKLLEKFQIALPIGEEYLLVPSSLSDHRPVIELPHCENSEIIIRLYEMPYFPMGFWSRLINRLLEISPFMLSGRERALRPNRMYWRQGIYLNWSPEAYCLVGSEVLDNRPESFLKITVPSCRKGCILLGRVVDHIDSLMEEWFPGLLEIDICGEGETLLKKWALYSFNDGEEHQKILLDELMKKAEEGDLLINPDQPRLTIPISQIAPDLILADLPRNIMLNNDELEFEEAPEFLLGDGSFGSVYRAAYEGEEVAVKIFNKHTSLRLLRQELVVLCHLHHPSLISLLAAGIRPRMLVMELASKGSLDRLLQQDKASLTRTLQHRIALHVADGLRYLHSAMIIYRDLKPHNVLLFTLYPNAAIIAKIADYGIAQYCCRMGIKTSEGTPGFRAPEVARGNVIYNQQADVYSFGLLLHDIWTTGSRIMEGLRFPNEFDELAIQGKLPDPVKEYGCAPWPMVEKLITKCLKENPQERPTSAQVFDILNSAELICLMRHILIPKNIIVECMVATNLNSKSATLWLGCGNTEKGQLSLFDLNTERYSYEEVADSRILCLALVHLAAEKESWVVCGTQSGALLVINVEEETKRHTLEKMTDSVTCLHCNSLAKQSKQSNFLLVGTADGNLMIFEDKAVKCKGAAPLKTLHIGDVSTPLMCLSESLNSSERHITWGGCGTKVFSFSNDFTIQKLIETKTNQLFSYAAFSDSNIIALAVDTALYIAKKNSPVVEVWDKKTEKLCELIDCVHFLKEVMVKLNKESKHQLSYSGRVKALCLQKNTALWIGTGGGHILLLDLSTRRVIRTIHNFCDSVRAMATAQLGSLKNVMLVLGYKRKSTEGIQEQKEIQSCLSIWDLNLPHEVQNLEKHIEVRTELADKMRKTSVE

Q: For `CNc1nc(Nc2ccc(C(=O)N3CCN(C[C@H]4CC[C@H](CSC(C)(C)[C@H](NC(=O)C5(F)CC5)C(=O)N5C[C@@H](O)CC5C(=O)NCc5ccc(-c6scnc6C)cc5)CC4)CC3)cc2OC)ncc1Cl` (stereo partly drawn) [Cis-XL01126, (2S,4S)-1-((R)-3-((((1r,4R)-4-((4-(4-((5-chloro-4-(methylamino)pyrimidin-2-yl)amino)-3-methoxybenzoyl)piperazin-1-yl)methyl)cyclohexyl)methyl)thio)-2-(1-fluorocyclopropane-1-carboxamido)-3-methylbutanoyl)-4-hydroxy-N-(4-(4-methylthiazol-5-yl)benzyl)pyrrolidine-2-carboxamide], which “LRRK2 degradation in macrophages (in words)” value is on record?
A: Its value is “cannot degrade LRRK2”.

Q: How did the “LRRK2 protein level reduced in macrophages” value turn out when `CNc1nc(Nc2ccc(C(=O)N3CCN(C[C@H]4CC[C@H](CSC(C)(C)[C@H](NC(=O)C5(F)CC5)C(=O)N5C[C@H](O)CC5C(=O)NCc5ccc(-c6scnc6C)cc5)CC4)CC3)cc2OC)ncc1Cl` (stereo partly drawn) [XL01126, (2S,4R)-1-((R)-3-((((1R,4R)-4-((4-(4-((5-chloro-4-(methylamino)pyrimidin-2-yl)amino)-3-methoxybenzoyl)piperazin-1-yl)methyl)cyclohexyl)methyl)thio)-2-(1-fluorocyclopropane-1-carboxamido)-3-methylbutanoyl)-4-hydroxy-N-(4-(4-methylthiazol-5-yl)benzyl)pyrrolidine-2-carboxamide] was run?
A: Its value is 80-90%.

Q: What about the DC50 (dose response) of the same molecule?
A: The DC50 was 55 nM.

Reference: patent US20260001875A1, “AMINOPYRIMIDINYL DERIVATIVES FOR THE TREATMENT OF PARKINSON'S DISEASE” (UNIVERSITY OF DUNDEE, priority 2022, published 2026)
